# Laboratory results reported in PubChem BioAssay AID1963850 (Molecular Pharmacology Branch, DTP, NCI, 2024).
# Tested on: 192522-019-R-J2-PDC complex tumor spheroid viability
# Assay: Anticancer human tumor 192522-019-R-J2-PDC patient-derived colon adenocarcinoma cell line growth inhibition [POLQ]
# Details: for IC50: curve of first compound; for viability, T/C: stronger effect = lower value
# Outline: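 Growth inhibition in 3D: complex spheroids (tumor PDC, HUVEC, MSC) treated with POLQ inhibitor combinations; where Cmax unknown, highest tested concentration 10 microM, except SN-38 at 1 microM.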
# [1] = second compound 0.0316 µM, first compound 0.0316 µM
# [2] = second compound 0.0316 µM, first compound 0.1 µM
# [3] = second compound 0.0316 µM, first compound 0.316 µM
# [4] = second compound 0.0316 µM, first compound 1 µM
# [5] = second compound 0.0316 µM, first compound 3.16 µM
# [6] = second compound 0.0316 µM, first compound 10 µM
# [7] = second compound 0.1 µM, first compound 0.0316 µM
# [8] = second compound 0.1 µM, first compound 0.1 µM
# [9] = second compound 0.1 µM, first compound 0.316 µM
# [10] = second compound 0.1 µM, first compound 1 µM
# [11] = second compound 0.1 µM, first compound 3.16 µM
# [12] = second compound 0.1 µM, first compound 10 µM
# [13] = second compound 0.316 µM, first compound 0.0316 µM
# [14] = second compound 0.316 µM, first compound 0.1 µM
# [15] = second compound 0.316 µM, first compound 0.316 µM
# [16] = second compound 0.316 µM, first compound 1 µM
# [17] = second compound 0.316 µM, first compound 3.16 µM
# [18] = second compound 0.316 µM, first compound 10 µM
# [19] = second compound 1 µM, first compound 0.0316 µM
# [20] = second compound 1 µM, first compound 0.1 µM
# [21] = second compound 1 µM, first compound 0.316 µM
# [22] = second compound 1 µM, first compound 1 µM
# [23] = second compound 1 µM, first compound 3.16 µM
# [24] = second compound 1 µM, first compound 10 µM
# [25] = second compound 3.16 µM, first compound 0.0316 µM
# [26] = second compound 3.16 µM, first compound 0.1 µM
# [27] = second compound 3.16 µM, first compound 0.316 µM
# [28] = second compound 3.16 µM, first compound 1 µM
# [29] = second compound 3.16 µM, first compound 3.16 µM
# [30] = second compound 3.16 µM, first compound 10 µM
# [31] = second compound 10 µM, first compound 0.0316 µM
# [32] = second compound 10 µM, first compound 0.1 µM
# [33] = second compound 10 µM, first compound 0.316 µM
# [34] = second compound 10 µM, first compound 1 µM
# [35] = second compound 10 µM, first compound 3.16 µM
# [36] = second compound 10 µM, first compound 10 µM
# 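Also: spheroids exposed to drugs for seven days before reading.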
# 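For viability, T/C in this document: 100% = DMSO vehicle control viability in luminescence.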
smiles,measurement,setting,value
CCCS(=O)(=O)Nc1ccc(F)c(C(=O)c2c[nH]c3ncc(-c4ccc(Cl)cc4)cc23)c1F + Cc1cccc(N(C)C(=O)C2C(O)CCN2c2nc(C)cc(C(F)(F)F)c2C#N)c1,IC50,second compound 0.0316 µM,> 10 µM
same,IC50,second compound 0.1 µM,> 10 µM
same,IC50,second compound 0.316 µM,> 10 µM
same,IC50,second compound 1 µM,> 10 µM
same,IC50,second compound 3.16 µM,> 10 µM
same,IC50,second compound 10 µM,> 10 µM
same,"viability, T/C",[1],101%
same,"viability, T/C",[2],110%
same,"viability, T/C",[3],96.8%
same,"viability, T/C",[4],119%
same,"viability, T/C",[5],109%
same,"viability, T/C",[6],77.7%
same,"viability, T/C",[7],105%
same,"viability, T/C",[8],102%
same,"viability, T/C",[9],106%
same,"viability, T/C",[10],114%
same,"viability, T/C",[11],101%
same,"viability, T/C",[12],78.7%
same,"viability, T/C",[13],106%
same,"viability, T/C",[14],101%
same,"viability, T/C",[15],97.3%
same,"viability, T/C",[16],97%
same,"viability, T/C",[17],105%
same,"viability, T/C",[18],62.8%
same,"viability, T/C",[19],113%
same,"viability, T/C",[20],118%
same,"viability, T/C",[21],103%
same,"viability, T/C",[22],102%
same,"viability, T/C",[23],120%
same,"viability, T/C",[24],61.5%
same,"viability, T/C",[25],101%
same,"viability, T/C",[26],106%
same,"viability, T/C",[27],105%
same,"viability, T/C",[28],103%
same,"viability, T/C",[29],102%
same,"viability, T/C",[30],73.2%
same,"viability, T/C",[31],110%
same,"viability, T/C",[32],102%
same,"viability, T/C",[33],98.3%
same,"viability, T/C",[34],106%
same,"viability, T/C",[35],124%
same,"viability, T/C",[36],66.2%
COc1cc(C2c3cc4c(cc3C(OC3OC5COC(C)OC5C(O)C3O)C3COC(=O)C23)OCO4)cc(OC)c1O (centres undefined) + Cc1cccc(N(C)C(=O)C2C(O)CCN2c2nc(C)cc(C(F)(F)F)c2C#N)c1,IC50,second compound 0.0316 µM,> 10 µM
same,IC50,second compound 0.1 µM,> 10 µM
same,IC50,second compound 0.316 µM,> 10 µM
same,IC50,second compound 1 µM,> 10 µM
same,IC50,second compound 3.16 µM,> 10 µM
same,IC50,second compound 10 µM,> 10 µM
same,"viability, T/C",[1],96.8%
same,"viability, T/C",[2],91.4%
same,"viability, T/C",[3],103%
same,"viability, T/C",[4],86.1%
same,"viability, T/C",[5],64.7%
same,"viability, T/C",[6],68.5%
same,"viability, T/C",[7],103%
same,"viability, T/C",[8],98.8%
same,"viability, T/C",[9],97.1%
same,"viability, T/C",[10],90.1%
same,"viability, T/C",[11],58.6%
same,"viability, T/C",[12],72.1%
same,"viability, T/C",[13],107%
same,"viability, T/C",[14],108%
same,"viability, T/C",[15],96.4%
same,"viability, T/C",[16],93.3%
same,"viability, T/C",[17],65.8%
same,"viability, T/C",[18],68.3%
same,"viability, T/C",[19],108%
same,"viability, T/C",[20],97.6%
same,"viability, T/C",[21],98.9%
same,"viability, T/C",[22],95.7%
same,"viability, T/C",[23],70.5%
same,"viability, T/C",[24],69.3%
same,"viability, T/C",[25],113%
same,"viability, T/C",[26],105%
same,"viability, T/C",[27],102%
same,"viability, T/C",[28],88.5%
same,"viability, T/C",[29],79.9%
same,"viability, T/C",[30],63.1%
same,"viability, T/C",[31],117%
same,"viability, T/C",[32],104%
same,"viability, T/C",[33],105%
same,"viability, T/C",[34],91.6%
same,"viability, T/C",[35],80%
same,"viability, T/C",[36],65.2%
